According to US20230355647A1, “Marker for determining anti-cancer effects of mitochondrial oxidative phosphorylation pathway inhibitor” (NANJING SHIJIANG MEDICINE TECHNOLOGY CO., LTD, priority 2020, published 2023):

Tests used:
Type in all cases: cell-based
A-375 = assay: Cell viability (CellTiter-Glo), A-375; settings: Homo sapiens; A-375 cell line, 3-4 days of culture
Experimental: (§1) Cell viability was detected using the Promega CellTiter-Glo kit, the kit reflected cell viability by directly measuring intracellular ATP content. The inhibitory effect (IC50 value) of Gboxin, a mitochondrial oxidative phosphorylation pathway inhibitor, on different tumor cell lines was tested in the Example. The name, source, and culture condition of each tumor cell line were as follows:
Cell line A-375 (ATCC, No. CRL-1619) was cultured in 10% fetal bovine serum-containing DMEM medium (+P/S).
(§2) The above tumor cells were cultured in the relevant medium (+P/S), and incubated for 3 h, then the gradient diluted Gboxin was added, and IC50 (50% inhibiting concentration) was measured after 3-4 days of culture.

U-251 MG = assay: Cell viability (CellTiter-Glo), U-251 MG; settings: Homo sapiens; U-251 MG cell line, 3-4 days of culture
Experimental: as §1
Cell line U-251 MG (ECACC, No. 9063001) was cultured in EMEM medium containing 2 mM glutamine, 1% NEAA, 1 mM sodium pyruvate (NaP) and 10% fetal bovine serum (+P/S).
as §2

OCI-AML-5 = assay: Cell viability (CellTiter-Glo), OCI-AML-5; settings: Homo sapiens; OCI-AML-5 cell line, 3-4 days of culture
Experimental: as §1
Cell line OCI-AML-5 (DSMZ, No. ACC-247) was cultured in alpha-MEM medium containing 20% fetal bovine serum and 10% volume fraction of 5637 cell line adjusted medium (+P/S).
as §2

OCI-AML-4 = assay: Cell viability (CellTiter-Glo), OCI-AML-4; settings: OCI-AML-4 cell line, 3-4 days of culture
Experimental: as §1
Cell line OCI-AML-4 (DSMZ, No. ACC-729) was cultured in alpha-MEM medium containing 20% fetal bovine serum and 20% volume fraction of 5637 cell line adjusted medium (+P/S).
as §2

HCC15 = assay: Cell viability (CellTiter-Glo), HCC15; settings: HCC15 cell line, 3-4 days of culture
Experimental: as §1
Cell line HCC15 (KCLB, No. 70015) was cultured in 10% fetal bovine serum-containing RPMI1640 medium (+P/S).
as §2

SNU-449 = assay: Cell viability (CellTiter-Glo), SNU-449; settings: Homo sapiens; SNU-449 cell line, 3-4 days of culture
Experimental: as §1
Cell line SNU-449 (ATCC, No. CRL-2234) was cultured in 10% fetal bovine serum-containing RPMI1640 medium (+P/S).
as §2

ATN-1 = assay: Cell viability (CellTiter-Glo), ATN-1; settings: Homo sapiens; ATN-1 cell line, 3-4 days of culture
Experimental: as §1
Cell line ATN-1 (RIKEN, No. RBRC-RCB1440) was cultured in RPMI1640 medium containing 10% fetal bovine serum and 0.1 mM NEAA (+P/S).
as §2

D283 Med = assay: Cell viability (CellTiter-Glo), D283 Med; settings: Homo sapiens; D283 Med cell line, 3-4 days of culture
Experimental: as §1
Cell line D283 Med (ATCC, No. HTB-185) was cultured in 10% fetal bovine serum-containing EMEM medium (+P/S).
as §2

SU-DHL-2 = assay: Cell viability (CellTiter-Glo), SU-DHL-2; settings: Homo sapiens; SU-DHL-2 cell line, 3-4 days of culture
Experimental: as §1
Cell line SU-DHL-2 (ATCC, No. CRL-2956) was cultured in 10% fetal bovine serum-containing RPMI1640 medium (+P/S).
as §2

COLO 320HSR = assay: Cell viability (CellTiter-Glo), COLO 320HSR; settings: Homo sapiens; COLO 320HSR cell line, 3-4 days of culture
Experimental: as §1
Cell line COLO 320HSR (ATCC, No. CCL-220.1) was cultured in 10% fetal bovine serum-containing RPMI1640 medium (+P/S).
as §2

BT-549 = assay: Cell viability (CellTiter-Glo), BT-549; settings: Homo sapiens; BT-549 cell line, 3-4 days of culture
Experimental: as §1
Cell line BT-549 (ATCC, No. HTB-122) was cultured in RPMI1640 medium containing 10% fetal bovine serum and 0.023 IU/ml human insulin (+P/S).
as §2

SU.86.86 = assay: Cell viability (CellTiter-Glo), SU.86.86; settings: Homo sapiens; SU.86.86 cell line, 3-4 days of culture
Experimental: as §1
Cell line SU.86.86 (ATCC, No. CRL-1837) was cultured in 10% fetal bovine serum-containing RPMI1640 medium (+P/S).
as §2

CFPAC-1 = assay: Cell viability (CellTiter-Glo), CFPAC-1; settings: Homo sapiens; CFPAC-1 cell line, 3-4 days of culture
Experimental: as §1, with “follows: Cell line CFPAC-1 (ATCC, No. CRL-1918) was cultured in 10% fetal bovine serum-containing IMDM medium (+P/S). […] Cell viability was detected using the Promega CellTiter-Glo kit, the kit reflected cell viability by directly measuring intracellular ATP content.” for “follows:”

SNU-398 = assay: Cell viability (CellTiter-Glo), SNU-398; settings: Homo sapiens; SNU-398 cell line, 3-4 days of culture
Experimental: as §1
Cell line SNU-398 (ATCC, No. CRL-2233) was cultured in 10% fetal bovine serum-containing RPMI1640 medium (+P/S).
as §2

CCc1n(CC(=O)O[C@@H]2C[C@H](C)CC[C@H]2C(C)C)c2ccccc2[n+]1C.[Cl-] [Gboxin]
IC50 (A-375): 4.65 µM
IC50 (U-251 MG): 16.7 µM
IC50 (OCI-AML-5): 2740 nM
IC50 (OCI-AML-4): 3.34 µM
IC50 (HCC15): 2260 nM
IC50 (SNU-449): > 30 µM
IC50 (ATN-1): 1550 nM
IC50 (D283 Med): 4.81 µM
IC50 (SU-DHL-2): 970 nM
IC50 (COLO 320HSR): > 30 µM
IC50 (BT-549): 3.28 µM
IC50 (SU.86.86): 13.7 µM
IC50 (CFPAC-1): > 30 µM
IC50 (SNU-398): 4.17 µM
